How the values were obtained:
[1] = target: T1, human GnRH receptor (Homo sapiens, UniProt P30968); assay: affinity for human GnRH receptor; type: binding; settings: kind of constant not given; also for salts such as the choline salt
T1 sequence (P30968 1-328): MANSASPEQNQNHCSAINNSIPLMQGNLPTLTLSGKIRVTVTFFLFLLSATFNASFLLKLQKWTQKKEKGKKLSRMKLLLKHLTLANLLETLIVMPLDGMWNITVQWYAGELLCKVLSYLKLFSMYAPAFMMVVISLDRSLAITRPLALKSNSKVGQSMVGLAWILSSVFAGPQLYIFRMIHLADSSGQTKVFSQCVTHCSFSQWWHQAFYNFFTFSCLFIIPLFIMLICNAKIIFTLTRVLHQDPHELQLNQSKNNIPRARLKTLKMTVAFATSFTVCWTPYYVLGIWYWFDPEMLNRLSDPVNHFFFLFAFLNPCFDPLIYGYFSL

[2] = half-life in a human patient; settings: in vivo, also the choline salt (VIa)
[3] = tested on: β17-estradiol (E2); assay: circulating E2 concentration, same clinical trial; type: in vivo, human; settings: for median E2 level: Delayed-ABT cohort, Compound (VI) alone
Method: (§1) The experiments described in this example were conducted as part of a single-center, open-label, randomized, parallel-group clinical trial in 32 pre-menopausal women. Following screening assessments, and during the second half of the menstrual cycle, women received norethindrone (5 mg, three-times daily for 10 days) to synchronize menstrual cycles. After menstrual cycle synchronization, subjects were randomized with a 1:1 ratio to one of two treatment arms: (i) a cohort receiving once-daily administration of compound (VI) (200 mg per day, administered in the form of a choline salt) with concurrent onset of add-back therapy administration for 10 weeks (“Concurrent-ABT”), or (ii) a cohort receiving pre-treatment with compound (VI) (200 mg per day, administered in the form of a choline salt) for 4 weeks followed by combined daily administration of compound (VI) and add-back therapy (“Delayed-ABT”). The add-back therapy used in these experiments contained 1.0 mg of E2 and 0.5 mg of norethindrone acetate, and was administered to subjects once daily.
(§2) The main treatment outcomes and endpoints measured during these experiments included (i) a qualitative assessment of uterine blood loss, which was recorded on a daily basis throughout the study by characterizing each subject's bleeding pattern using one of the following four categories: “no bleeding,” “spotting” (light staining, dark blood, no sanitary protection needed or only panty liner), “bleeding” (1-4 completely soiled maxi sanitary towels or 1-8 soiled tampons or equivalent combination of the two), or “heavy bleeding” (>4 completely soiled maxi sanitary towels or >8 soiled tampons or equivalent combination of the two); (ii) a bi-weekly assessment of each subject's circulating E2 concentration; (iii) a bi-weekly assessment of each subject's circulating progesterone concentration (measured using a validated commercial chemiluminescence immunoassay method (Elecsys Progesterone III, Roche, Burgess Hill, UK)); (iv) the pharmacokinetic profile of compound (VI) and the add-back therapy; and (v) adverse events.

[4] = tested on: progesterone; assay: circulating progesterone concentration, same clinical trial; type: in vivo, human; settings: both cohorts (Concurrent-ABT and Delayed-ABT), exception of a single outlier subject, FIG. 3B
Method: The experiments described in this example were conducted as part of a single-center, open-label, randomized, parallel-group clinical trial in 32 pre-menopausal women. Following screening assessments, and during the second half of the menstrual cycle, women received norethindrone (5 mg, three-times daily for 10 days) to synchronize menstrual cycles. […]
as §2

[5] = adverse events, same clinical trial; type: in vivo, human
Method: as §1, §2

[6] = Days 1-14, treatment A (Concurrent-ABT), N=16
[7] = Days 1-14, treatment B (Delayed-ABT), N=16
[8] = Days 15-28, Overall (A+B), N=32
[9] = Days 15-28, treatment A (Concurrent-ABT), N=16
[10] = Days 15-28, treatment B (Delayed-ABT), N=16
[11] = Days 29-42, Overall (A+B), N=29
[12] = Days 29-42, treatment A (Concurrent-ABT), N=14
[13] = Days 29-42, treatment B (Delayed-ABT), N=15
[14] = Days 43-56, Overall (A+B), N=29
[15] = Days 43-56, treatment A (Concurrent-ABT), N=14
[16] = Days 43-56, treatment B (Delayed-ABT), N=15
[17] = Days 57-70, Overall (A+B), N=29
[18] = Days 57-70, treatment A (Concurrent-ABT), N=14
[19] = Days 57-70, treatment B (Delayed-ABT), N=15
[20] = events of all reported adverse events, both cohorts

## COc1cc(F)c(-n2c(=O)[nH]c3csc(C(=O)O)c3c2=O)cc1OCc1c(OC)ccc(F)c1F [Compound (VI), 3-[2-fluoro-5-(2,3-difluoro-6-methoxybenzyloxy)4-methoxyphenyl]-2,4-dioxo-1,2,3,4-tetrahydrothieno [3,4d]pyrimidine-5-carboxylic acid]
[1]
  Ki: 27.4 nM
[2]
  half-life: 14 to 15 h
[3]; Concurrent-ABT cohort, whole study
  median E2 levels, window never left: 20 to 50 pg/mL
[3]; by week 2
  median E2 level: 3.7 pg/mL
[3]; by week 4
  median E2 level: 4.1 pg/mL
[4]
  circulating progesterone: sustained reduction in circulating progesterone
[5]; Concurrent-ABT versus Delayed-ABT
  hot flushes, cohort of occurrence: exclusively occurred in the “Delayed-ABT” group
[5]; Days 1-14, Overall (A+B), N=32
  Hot Flush, subjects (%), Plasma Estradiol Level 20-50 pg/mL: (0.0%)
  Hot Flush, subjects (%), Plasma Estradiol Level <20 pg/mL: (6.3%)
  Hot Flush, subjects (%), Plasma Estradiol Level >50 pg/mL: (0.0%)
  Hot Flush, subjects (n), Plasma Estradiol Level 20-50 pg/mL: 0
  Hot Flush, subjects (n), Plasma Estradiol Level <20 pg/mL: 2
  Hot Flush, subjects (n), Plasma Estradiol Level >50 pg/mL: 0
[5]; [6]
  Hot Flush, subjects (%), Plasma Estradiol Level 20-50 pg/mL: (0.0%)
  Hot Flush, subjects (%), Plasma Estradiol Level <20 pg/mL: (0.0%)
  Hot Flush, subjects (%), Plasma Estradiol Level >50 pg/mL: (0.0%)
  Hot Flush, subjects (n), Plasma Estradiol Level 20-50 pg/mL: 0
  Hot Flush, subjects (n), Plasma Estradiol Level <20 pg/mL: 0
  Hot Flush, subjects (n), Plasma Estradiol Level >50 pg/mL: 0
[5]; [7]
  Hot Flush, subjects (%), Plasma Estradiol Level 20-50 pg/mL: (0.0%)
  Hot Flush, subjects (%), Plasma Estradiol Level <20 pg/mL: (12.5%)
  Hot Flush, subjects (%), Plasma Estradiol Level >50 pg/mL: (0.0%)
  Hot Flush, subjects (n), Plasma Estradiol Level 20-50 pg/mL: 0
  Hot Flush, subjects (n), Plasma Estradiol Level <20 pg/mL: 2
  Hot Flush, subjects (n), Plasma Estradiol Level >50 pg/mL: 0
[5]; [8]
  Hot Flush, subjects (%), Plasma Estradiol Level 20-50 pg/mL: (0.0%)
  Hot Flush, subjects (%), Plasma Estradiol Level <20 pg/mL: (12.5%)
  Hot Flush, subjects (%), Plasma Estradiol Level >50 pg/mL: (0.0%)
  Hot Flush, subjects (n), Plasma Estradiol Level 20-50 pg/mL: 0
  Hot Flush, subjects (n), Plasma Estradiol Level <20 pg/mL: 4
  Hot Flush, subjects (n), Plasma Estradiol Level >50 pg/mL: 0
[5]; [9]
  Hot Flush, subjects (%), Plasma Estradiol Level 20-50 pg/mL: (0.0%)
  Hot Flush, subjects (%), Plasma Estradiol Level <20 pg/mL: (0.0%)
  Hot Flush, subjects (%), Plasma Estradiol Level >50 pg/mL: (0.0%)
  Hot Flush, subjects (n), Plasma Estradiol Level 20-50 pg/mL: 0
  Hot Flush, subjects (n), Plasma Estradiol Level <20 pg/mL: 0
  Hot Flush, subjects (n), Plasma Estradiol Level >50 pg/mL: 0
[5]; [10]
  Hot Flush, subjects (%), Plasma Estradiol Level 20-50 pg/mL: (0.0%)
  Hot Flush, subjects (%), Plasma Estradiol Level <20 pg/mL: (25.0%)
  Hot Flush, subjects (%), Plasma Estradiol Level >50 pg/mL: (0.0%)
  Hot Flush, subjects (n), Plasma Estradiol Level 20-50 pg/mL: 0
  Hot Flush, subjects (n), Plasma Estradiol Level <20 pg/mL: 4
  Hot Flush, subjects (n), Plasma Estradiol Level >50 pg/mL: 0
[5]; [11]
  Hot Flush, subjects (%), Plasma Estradiol Level 20-50 pg/mL: (10.3%)
  Hot Flush, subjects (%), Plasma Estradiol Level <20 pg/mL: (6.9%)
  Hot Flush, subjects (%), Plasma Estradiol Level >50 pg/mL: (0.0%)
  Hot Flush, subjects (n), Plasma Estradiol Level 20-50 pg/mL: 3
  Hot Flush, subjects (n), Plasma Estradiol Level <20 pg/mL: 2
  Hot Flush, subjects (n), Plasma Estradiol Level >50 pg/mL: 0
[5]; [12]
  Hot Flush, subjects (%), Plasma Estradiol Level 20-50 pg/mL: (0.0%)
  Hot Flush, subjects (%), Plasma Estradiol Level <20 pg/mL: (0.0%)
  Hot Flush, subjects (%), Plasma Estradiol Level >50 pg/mL: (0.0%)
  Hot Flush, subjects (n), Plasma Estradiol Level 20-50 pg/mL: 0
  Hot Flush, subjects (n), Plasma Estradiol Level <20 pg/mL: 0
  Hot Flush, subjects (n), Plasma Estradiol Level >50 pg/mL: 0
[5]; [13]
  Hot Flush, subjects (%), Plasma Estradiol Level 20-50 pg/mL: (20.0%)
  Hot Flush, subjects (%), Plasma Estradiol Level <20 pg/mL: (13.3%)
  Hot Flush, subjects (%), Plasma Estradiol Level >50 pg/mL: (0.0%)
  Hot Flush, subjects (n), Plasma Estradiol Level 20-50 pg/mL: 3
  Hot Flush, subjects (n), Plasma Estradiol Level <20 pg/mL: 2
  Hot Flush, subjects (n), Plasma Estradiol Level >50 pg/mL: 0
[5]; [14]
  Hot Flush, subjects (%), Plasma Estradiol Level 20-50 pg/mL: (0.0%)
  Hot Flush, subjects (%), Plasma Estradiol Level <20 pg/mL: (3.4%)
  Hot Flush, subjects (%), Plasma Estradiol Level >50 pg/mL: (0.0%)
  Hot Flush, subjects (n), Plasma Estradiol Level 20-50 pg/mL: 0
  Hot Flush, subjects (n), Plasma Estradiol Level <20 pg/mL: 1
  Hot Flush, subjects (n), Plasma Estradiol Level >50 pg/mL: 0
[5]; [15]
  Hot Flush, subjects (%), Plasma Estradiol Level 20-50 pg/mL: (0.0%)
  Hot Flush, subjects (%), Plasma Estradiol Level <20 pg/mL: (0.0%)
  Hot Flush, subjects (%), Plasma Estradiol Level >50 pg/mL: (0.0%)
  Hot Flush, subjects (n), Plasma Estradiol Level 20-50 pg/mL: 0
  Hot Flush, subjects (n), Plasma Estradiol Level <20 pg/mL: 0
  Hot Flush, subjects (n), Plasma Estradiol Level >50 pg/mL: 0
[5]; [16]
  Hot Flush, subjects (%), Plasma Estradiol Level 20-50 pg/mL: (0.0%)
  Hot Flush, subjects (%), Plasma Estradiol Level <20 pg/mL: (6.7%)
  Hot Flush, subjects (%), Plasma Estradiol Level >50 pg/mL: (0.0%)
  Hot Flush, subjects (n), Plasma Estradiol Level 20-50 pg/mL: 0
  Hot Flush, subjects (n), Plasma Estradiol Level <20 pg/mL: 1
  Hot Flush, subjects (n), Plasma Estradiol Level >50 pg/mL: 0
[5]; [17]
  Hot Flush, subjects (%), Plasma Estradiol Level 20-50 pg/mL: (0.0%)
  Hot Flush, subjects (%), Plasma Estradiol Level <20 pg/mL: (0.0%)
  Hot Flush, subjects (%), Plasma Estradiol Level >50 pg/mL: (0.0%)
  Hot Flush, subjects (n), Plasma Estradiol Level 20-50 pg/mL: 0
  Hot Flush, subjects (n), Plasma Estradiol Level <20 pg/mL: 0
  Hot Flush, subjects (n), Plasma Estradiol Level >50 pg/mL: 0
[5]; [18]
  Hot Flush, subjects (%), Plasma Estradiol Level 20-50 pg/mL: (0.0%)
  Hot Flush, subjects (%), Plasma Estradiol Level <20 pg/mL: (0.0%)
  Hot Flush, subjects (%), Plasma Estradiol Level >50 pg/mL: (0.0%)
  Hot Flush, subjects (n), Plasma Estradiol Level 20-50 pg/mL: 0
  Hot Flush, subjects (n), Plasma Estradiol Level <20 pg/mL: 0
  Hot Flush, subjects (n), Plasma Estradiol Level >50 pg/mL: 0
[5]; [19]
  Hot Flush, subjects (%), Plasma Estradiol Level 20-50 pg/mL: (0.0%)
  Hot Flush, subjects (%), Plasma Estradiol Level <20 pg/mL: (0.0%)
  Hot Flush, subjects (%), Plasma Estradiol Level >50 pg/mL: (0.0%)
  Hot Flush, subjects (n), Plasma Estradiol Level 20-50 pg/mL: 0
  Hot Flush, subjects (n), Plasma Estradiol Level <20 pg/mL: 0
  Hot Flush, subjects (n), Plasma Estradiol Level >50 pg/mL: 0
[5]; both cohorts
  tolerability: well-tolerated
[5]; [20]
  adverse events: headache: 38/166
  adverse events: hot flushes: 19/166

Source: patent publication US20230067378A1, “COMPOSITIONS AND METHODS FOR THE TREATMENT OF ESTROGEN-DEPENDENT DISORDERS” (ObsEva S.A., priority 2018, published 2023)
